Assay results: US20260356826A1, “SALTS OF AMINO QUINAZOLINE DERIVATIVES” (CHIESI FARMACEUTICI S.P.A., priority 2023, published 2026)
Values after ≈ are worked out from the molar mass of the structure shown. Structures can show the parent of a compound that is named as a salt.

Legend:
Type in all cases: physicochemical
[1] = Dissolution in Fasted State Simulated Gastric Fluid (FaSSGF), manual experiment, 37 °C; settings: for Solubility: 37 °C
Procedure: The dissolution in Fasted State Simulated Gastric Fluid (FaSSGF) of mesylate salt Form 2 of the compound A of Example 2 and esylate salt Form 1 of Example 6 in comparison with the free base Form A and with other salts was tested by means of manual experiment. The medium for simulated oral fluids was FaSSGF obtained from Biorelevant.com Ltd. The experiments were conducted for 60 minutes at 37 °C.
General preparation of salts: in a round-bottomed flask, 200 mg of compound A free base Form A according to Example 1 (0.52 mmol) were suspended in 5 ml of solvent and stirred at RT. Acetone was employed for bromide, ethanedisulfonate, malonate, sulfate, saccharinate, tosylate, orotate, besylate, hemisulfate, phosphate and tartrate salts; water was employed for chloride salt; ethyl formate was employed for maleate, oxalate, gentisicate, fumarate and mandelate salts; tetrahydrofuran was employed for camphorsulfonate and pamoate salts; isopropyl acetate was employed for 4-hydroxybenzoate and methanol for camphorate salt. The corresponding acid was added under stirring in equimolar amount (except for hemisulfate, added in 0.5 molar amount). After 1 hour the crystalline solid was isolated by filtration, washed with the corresponding solvent (2×1 ml) and dried under nitrogen for 2 hours.
The quantification of the dissolved amount was done by LC/UV system at different checkpoints up to 60 minutes. The saturation solution concentration was around 25-30 mg/ml. […] In a second experiment, the quantification was repeated with saturation solution concentration 170 mg/ml for the mesylate salt Form 2 and 100 mg/ml for the esylate salt Form 1. The results are reported in tables 8A, 8B, 8C, 8D and FIG. 28.

[2] = Dynamic vapour sorption (DVS), hygroscopicity
Procedure: Moisture sorption/desorption data were collected on a TA Instruments Vapor Sorption Analyzer Q5000SA.
First step: sorption data was collected in the range 40% to 90% relative humidity (RH).
Second Step: desorption, sorption and desorption data were collected over a range of 0% to 90% RH at 10% RH intervals under a nitrogen purge. Samples were not dried prior to analysis. Equilibrium criteria used for analysis were less than 0.100% weight change in 20 minutes, with a maximum equilibration time of 1 hour if the weight criterion was not met. Data were not corrected for the initial moisture content of the samples. NaBr was used as humidity verification.
Moisture sorption/desorption data were also collected on a ProUmid SnS 23 equipped with a 23 autosampler following Method 1.
In the first step sorption data was collected in the range 0% to 90% RH. Samples were not dried prior to analysis.
In the second Step desorption, sorption and desorption data were collected over a range of 0% to 90% (RH) at 10% RH intervals under a nitrogen purge. Data were not corrected for the initial moisture content of the samples.

[3] = Formulations in 20% SBE-βCD with citrate buffer: appearance and pH
Procedure: The drug content and homogeneity of the mesylate salt Form 2 and the free base Form A of Compound A in 20% w/v SBE-PCD (Sulfobutyl-ether-β-Cyclodextrin, Captisol; CYDEX Pharmaceutical) were tested at different citrate buffer concentrations such as 0.05 M, 0.1 M, 0.5 M and 1 M, at pH 2.5. To prepare the vehicle, the proper amount of citric acid (Sigma Aldrich; CAS: 77-92-9) was dissolved in water in a volumetric flask, then the pH was increased up to 2.5 using 1M NaOH. Then water was added and brought to the final volume. SBE-PCD was weighed and added in a beaker containing the citrate buffer, then left under stirring until it was dissolved. The required volume of vehicle was added to a known amount of Compound A free base Form A or Mesylate salt Form 2, then sonicated at RT for at least 10 min. The formulation was kept under magnetic stirring for at least 10 min before analysis. The stability in terms of content uniformity and pH were evaluated for up to 8 days. The samples were kept at RT and the nominal concentration was 40 mg/ml.

[4] = Two-sector dissolution study (FaSSGF then FaSSIF), parachute effect; settings: for Estimated supersaturation duration (parachute effect): second experiment, pH adjusted to 6.5 after FaSSIF addition; for Time of precipitation: protocol of the second experiment
Procedure: The dissolution behaviour of mesylate salt Form 2 of compound A was studied in a two-sector model in comparison with free base Form A to evaluate a possible “spring-parachute effect”.
The parachute effect is observable in two-sector dissolution studies. A test compound is incubated with FaSSGF and its concentration is monitored over time. FaSSIF is then added to the solution whilst continuing the monitoring. The period of time in which the test compound remains in solution without or before precipitating refers to the supersaturation time and represents the parachute effect.
The experiment was conducted using DISS Profiler 6 Channel Pion. The free base Form A and mesylate salt Form 2 of compound A were each incubated in 8 ml of FaSSGF (pH 1.6) for 20 minutes at the concentration of 350 mg/250 ml. 16 ml of FaSSIF concentrated 1.5× (pH 6.5) was added with an incubation time of 180 minutes. The resulting target pH should be approximately 5-6. The experiment was conducted at 37 °C. The entire dissolution profile was monitored until the end of the experiment to evaluate a possible parachute effect, its duration and to evaluate the maximum solubility reached after the addition of FaSSIF.
A second experiment was conducted, with an additional step of adjusting the pH to 6.5 after FaSSIF addition. Both free base Form A and mesylate salt Form 2 of compound A were tested.
A third experiment was conducted on esylate salt Form 1 of compound A, using the same protocol of the second experiment, with free base Form A and mesylate salt Form 2 of compound A as controls. The experiment was aimed at evaluating comparatively a possible parachute effect of the esylate salt and its duration. Precipitation of the free base was observed after roughly 20 minutes, while precipitation of the esylate salt and mesylate salt were observed after 30 and 40 minutes respectively.

[5] = 20% SBE-βCD, citrate buffer 0.05 M, nominal 40 mg/ml
[6] = 20% SBE-βCD, citrate buffer 0.05 M, nominal 40 mg/ml, listed as Free base Form A
[7] = 20% SBE-βCD, citrate buffer 0.1 M, nominal 40 mg/ml
[8] = 20% SBE-βCD, citrate buffer 0.1 M, nominal 40 mg/ml, listed as Free base Form A
[9] = 20% SBE-βCD, citrate buffer 0.5 M, nominal 40 mg/ml
[10] = 20% SBE-βCD, citrate buffer 0.5 M, nominal 40 mg/ml, listed as Free base Form A
[11] = 20% SBE-βCD, citrate buffer 1 M, nominal 40 mg/ml

COc1cc(-c2ccc(F)cn2)cc2c(N[C@H](C)c3noc(C)n3)ncnc12 [free base Form A, (R)-6-(5-fluoropyridin-2-yl)-8-methoxy-N-(1-(5-methyl-1,2,4-oxadiazol-3-yl)ethyl)quinazolin-4-amine]
Solubility ([1]; first experiment (saturation conc. around 25-30 mg/ml), 5 min): 6.87 mg/mL (≈ 18.1 mM) | Solubility ([1]; first experiment, 10 min): 7.01 mg/mL (≈ 18.4 mM) | Solubility ([1]; first experiment, 20 min): 6.84 mg/mL (≈ 18 mM) | Solubility ([1]; first experiment, 40 min): 6.89 mg/mL (≈ 18.1 mM) | Solubility ([1]; first experiment, 60 min): 6.89 mg/mL (≈ 18.1 mM) | Solubility ([1]; second experiment (saturation conc. 170 mg/ml mesylate, 100 mg/ml esylate), 0 min): 0.63 mg/mL (≈ 1.66 mM) | Solubility ([1]; second experiment, 15 min): 12.77 mg/mL (≈ 33.6 mM) | Solubility ([1]; second experiment, 30 min): 11.89 mg/mL (≈ 31.3 mM) | Solubility ([1]; second experiment, 60 min): 13.47 mg/mL (≈ 35.4 mM) | Total weight gain (hygroscopicity) ([2]; between 2.5% and 90% RH): about 0.249 wt % | Hygroscopicity ([2]; between 20% and 80% RH): No hygroscopicity was noted | Total water uptake ([2]; between 20% and 80% RH): 0.249% | Appearance [3, 5]: suspension | Appearance [3, 6]: Fine suspension | pH of formulation [3, 6]: 3.1 | Appearance [3, 7]: suspension | Appearance [3, 8]: Suspension | pH of formulation [3, 8]: 3.5 | Appearance [3, 9]: suspension | Appearance [3, 10]: Thick suspension | pH of formulation [3, 10]: 3.2 | Time of gelification ([3]; 20% SBE-βCD, citrate buffer 1 M): 24 h | Appearance [3, 11]: Solution, gel after 24 hours | pH of formulation [3, 11]: 3.2 | Time of gelification ([3]; 20% SBE-βCD, citrate buffer 1 M, listed as Free base Form A): ≤ 24 h | pH after the addition of FaSSIF ([4]; first experiment): 5.8 | Precipitation start after FaSSIF addition ([4]; first experiment, no pH adjustment, 37 °C): about 10 minutes | Estimated supersaturation duration (parachute effect) [4]: 8 min | Time of precipitation ([4]; third experiment): roughly 20 minutes

COc1cc(-c2ccc(F)cn2)cc2c(N[C@H](C)c3noc(C)n3)ncnc12 [mesylate salt Form 2, (R)-6-(5-fluoropyridin-2-yl)-8-methoxy-N-(1-(5-methyl-1,2,4-oxadiazol-3-yl)ethyl)quinazolin-4-amine]
Solubility ([1]; first experiment (saturation conc. around 25-30 mg/ml), 5 min, listed as mesylate Form 2, 5 min): 31.44 mg/mL | Solubility ([1]; first experiment, 10 min, listed as mesylate Form 2, 10 min): 31.92 mg/mL | Solubility ([1]; first experiment, 20 min, listed as mesylate Form 2, 20 min): 31.65 mg/mL | Solubility ([1]; first experiment, 40 min, listed as mesylate Form 2, 40 min): 31.16 mg/mL | Solubility ([1]; first experiment, 60 min): ≥ 25 mg/mL | Solubility ([1]; first experiment, 60 min, listed as mesylate Form 2, 60 min): 31.30 mg/mL | Solubility ([1]; second experiment (saturation conc. 170 mg/ml mesylate, 100 mg/ml esylate), 0 min, listed as mesylate Form 2, 0 min): 19.25 mg/mL | Solubility ([1]; second experiment, 15 min, listed as mesylate Form 2, 15 min): 151.67 mg/mL | Solubility ([1]; second experiment, 30 min, listed as mesylate Form 2, 30 min): 159.96 mg/mL | Solubility ([1]; second experiment, 60 min, listed as mesylate Form 2, 60 min): 169.82 mg/mL | Solubility compared to free base Form A ([1]; 60 minutes): consistently higher solubility than the free base Form A during the 60 minutes time | Dissolution ([1]; first experiment, saturation conc. around 25-30 mg/ml): completely dissolved | Total weight gain (hygroscopicity) ([2]; between 0% and 90% RH): about 1.049 wt % | Appearance [3, 5]: Solution | pH of formulation [3, 5]: 3.0 | Appearance [3, 7]: Solution | pH of formulation [3, 7]: 3.0 | Appearance [3, 9]: Solution | pH of formulation [3, 9]: 2.8 | Appearance [3, 11]: Solution | pH of formulation [3, 11]: 2.8 | Formulability in solution compared to free base Form A ([3]; 20% SBE-βCD, citrate buffers): better formulability in solution | Gelification during the test period ([3]; all citrate buffer concentrations, up to 8 days, RT): No gelification was observed | Appearance ([3]; all concentrations of citrate buffer): Stable solutions | pH measured at the end of the experiment ([4]; first experiment): 4.5 | Precipitation after FaSSIF addition ([4]; first experiment, no pH adjustment): No precipitation was observed | Estimated supersaturation duration (parachute effect) [4]: 14 min | Duration of the parachute effect compared to free base Form A ([4]; third experiment): longer duration of the parachute effect | Time of precipitation ([4]; third experiment): 40 min
